Assay results reported in patent publication US12479847B2 (DANA-FARBER CANCER INSTITUTE, INC., priority 2019, dated 2025).

How the values were obtained:
Test in all cases: KINOMEscan (ScanMAX) kinase profiling
Assay type in all cases: binding
panel of 468 kinases [1] = target: T1, panel of 468 kinases (Homo sapiens, UniProt P04629); settings: TRKA; 1 μM; read-out: % control
T1 construct: purchased KINOMEscan (ScanMAX) service

panel of 468 kinases [2] = target: T2, panel of 468 kinases (Homo sapiens, UniProt P15056); settings: BRAF; 1 μM; read-out: % control
T2 construct: purchased KINOMEscan (ScanMAX) service

panel of 468 kinases [3] = target: T3, panel of 468 kinases (Homo sapiens, UniProt P54760); settings: EPHB4; 1 μM; read-out: % control
T3 construct: purchased KINOMEscan (ScanMAX) service
T3 sequence (P54760 16-987): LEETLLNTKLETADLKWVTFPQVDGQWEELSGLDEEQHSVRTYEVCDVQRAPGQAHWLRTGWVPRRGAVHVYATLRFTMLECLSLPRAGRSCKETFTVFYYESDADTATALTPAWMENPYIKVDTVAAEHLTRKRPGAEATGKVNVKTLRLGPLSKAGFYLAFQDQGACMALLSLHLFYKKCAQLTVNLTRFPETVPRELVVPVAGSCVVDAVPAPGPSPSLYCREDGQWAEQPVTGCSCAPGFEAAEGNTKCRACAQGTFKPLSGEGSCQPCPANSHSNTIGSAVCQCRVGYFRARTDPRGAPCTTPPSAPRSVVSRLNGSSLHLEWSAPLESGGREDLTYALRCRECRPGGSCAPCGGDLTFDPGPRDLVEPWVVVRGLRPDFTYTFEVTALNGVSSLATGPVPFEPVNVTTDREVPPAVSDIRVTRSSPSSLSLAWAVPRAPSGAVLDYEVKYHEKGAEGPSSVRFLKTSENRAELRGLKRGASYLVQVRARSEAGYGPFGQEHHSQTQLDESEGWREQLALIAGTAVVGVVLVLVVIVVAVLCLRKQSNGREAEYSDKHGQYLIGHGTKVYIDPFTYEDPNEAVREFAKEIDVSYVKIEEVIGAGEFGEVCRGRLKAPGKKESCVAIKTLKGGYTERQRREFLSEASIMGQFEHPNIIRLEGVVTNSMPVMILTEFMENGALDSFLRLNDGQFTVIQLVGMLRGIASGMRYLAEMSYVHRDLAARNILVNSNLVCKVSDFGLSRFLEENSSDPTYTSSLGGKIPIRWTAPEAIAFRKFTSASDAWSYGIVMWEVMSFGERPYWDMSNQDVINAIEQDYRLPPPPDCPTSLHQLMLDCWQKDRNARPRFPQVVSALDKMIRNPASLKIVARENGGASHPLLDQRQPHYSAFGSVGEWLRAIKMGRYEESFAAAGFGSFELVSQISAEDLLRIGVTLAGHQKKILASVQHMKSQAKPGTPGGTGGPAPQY

panel of 468 kinases [4] = target: T4, panel of 468 kinases (Homo sapiens, UniProt Q13164); settings: ERK5; 1 μM; read-out: % control
T4 construct: purchased KINOMEscan (ScanMAX) service

panel of 468 kinases [5] = target: T5, panel of 468 kinases (Homo sapiens, UniProt Q15569); settings: TESK1; 1 μM; read-out: % control
T5 construct: purchased KINOMEscan (ScanMAX) service

panel of 468 kinases [6] = target: T6, panel of 468 kinases (Homo sapiens, UniProt Q86Z02); settings: HIPK1; 1 μM; read-out: % control
T6 construct: purchased KINOMEscan (ScanMAX) service

panel of 468 kinases [7] = target: T7, panel of 468 kinases (Homo sapiens, UniProt Q9H2X6); settings: HIPK2; 1 μM; read-out: % control
T7 construct: purchased KINOMEscan (ScanMAX) service

panel of 468 kinases [8] = target: T8, panel of 468 kinases (Homo sapiens, UniProt Q9HBH9); settings: MKNK2; 1 μM; read-out: % control
T8 construct: purchased KINOMEscan (ScanMAX) service

panel of 468 kinases [9] = target: T9, panel of 468 kinases (Homo sapiens, UniProt Q9HBY8); settings: SGK2; 1 μM; read-out: % control
T9 construct: purchased KINOMEscan (ScanMAX) service
T9 sequence (Q9HBY8 1-367): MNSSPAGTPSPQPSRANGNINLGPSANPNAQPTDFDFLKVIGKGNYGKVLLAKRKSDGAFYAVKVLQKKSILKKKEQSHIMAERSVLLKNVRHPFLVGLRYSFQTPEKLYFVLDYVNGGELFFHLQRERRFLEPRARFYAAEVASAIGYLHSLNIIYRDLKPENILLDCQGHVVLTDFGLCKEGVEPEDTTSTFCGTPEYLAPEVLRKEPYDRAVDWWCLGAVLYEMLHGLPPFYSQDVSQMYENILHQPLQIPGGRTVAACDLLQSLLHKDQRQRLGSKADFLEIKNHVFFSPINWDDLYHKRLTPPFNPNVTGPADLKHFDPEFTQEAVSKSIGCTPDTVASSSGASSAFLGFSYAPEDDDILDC

panel of 468 kinases [10] = target: T10, panel of 468 kinases (Homo sapiens, UniProt Q9HCP0); settings: CSNK1G1; 1 μM; read-out: % control
T10 construct: purchased KINOMEscan (ScanMAX) service

panel of 468 kinases [11] = target: T11, panel of 468 kinases (Homo sapiens, UniProt Q9P289); settings: MST4; 1 μM; read-out: % control
T11 construct: purchased KINOMEscan (ScanMAX) service
T11 sequence (Q9P289 whole entry): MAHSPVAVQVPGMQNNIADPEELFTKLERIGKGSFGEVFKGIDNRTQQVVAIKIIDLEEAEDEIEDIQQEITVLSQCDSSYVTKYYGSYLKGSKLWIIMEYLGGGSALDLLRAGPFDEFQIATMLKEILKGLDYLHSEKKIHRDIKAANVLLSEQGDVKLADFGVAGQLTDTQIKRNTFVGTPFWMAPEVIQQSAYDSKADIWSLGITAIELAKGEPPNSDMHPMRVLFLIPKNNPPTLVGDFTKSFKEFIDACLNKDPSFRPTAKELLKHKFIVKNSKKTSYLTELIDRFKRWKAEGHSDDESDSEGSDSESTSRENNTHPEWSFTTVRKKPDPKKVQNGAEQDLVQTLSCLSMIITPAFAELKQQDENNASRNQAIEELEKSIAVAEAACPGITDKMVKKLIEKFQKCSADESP

T7 sequence (Q9H2X6 whole entry): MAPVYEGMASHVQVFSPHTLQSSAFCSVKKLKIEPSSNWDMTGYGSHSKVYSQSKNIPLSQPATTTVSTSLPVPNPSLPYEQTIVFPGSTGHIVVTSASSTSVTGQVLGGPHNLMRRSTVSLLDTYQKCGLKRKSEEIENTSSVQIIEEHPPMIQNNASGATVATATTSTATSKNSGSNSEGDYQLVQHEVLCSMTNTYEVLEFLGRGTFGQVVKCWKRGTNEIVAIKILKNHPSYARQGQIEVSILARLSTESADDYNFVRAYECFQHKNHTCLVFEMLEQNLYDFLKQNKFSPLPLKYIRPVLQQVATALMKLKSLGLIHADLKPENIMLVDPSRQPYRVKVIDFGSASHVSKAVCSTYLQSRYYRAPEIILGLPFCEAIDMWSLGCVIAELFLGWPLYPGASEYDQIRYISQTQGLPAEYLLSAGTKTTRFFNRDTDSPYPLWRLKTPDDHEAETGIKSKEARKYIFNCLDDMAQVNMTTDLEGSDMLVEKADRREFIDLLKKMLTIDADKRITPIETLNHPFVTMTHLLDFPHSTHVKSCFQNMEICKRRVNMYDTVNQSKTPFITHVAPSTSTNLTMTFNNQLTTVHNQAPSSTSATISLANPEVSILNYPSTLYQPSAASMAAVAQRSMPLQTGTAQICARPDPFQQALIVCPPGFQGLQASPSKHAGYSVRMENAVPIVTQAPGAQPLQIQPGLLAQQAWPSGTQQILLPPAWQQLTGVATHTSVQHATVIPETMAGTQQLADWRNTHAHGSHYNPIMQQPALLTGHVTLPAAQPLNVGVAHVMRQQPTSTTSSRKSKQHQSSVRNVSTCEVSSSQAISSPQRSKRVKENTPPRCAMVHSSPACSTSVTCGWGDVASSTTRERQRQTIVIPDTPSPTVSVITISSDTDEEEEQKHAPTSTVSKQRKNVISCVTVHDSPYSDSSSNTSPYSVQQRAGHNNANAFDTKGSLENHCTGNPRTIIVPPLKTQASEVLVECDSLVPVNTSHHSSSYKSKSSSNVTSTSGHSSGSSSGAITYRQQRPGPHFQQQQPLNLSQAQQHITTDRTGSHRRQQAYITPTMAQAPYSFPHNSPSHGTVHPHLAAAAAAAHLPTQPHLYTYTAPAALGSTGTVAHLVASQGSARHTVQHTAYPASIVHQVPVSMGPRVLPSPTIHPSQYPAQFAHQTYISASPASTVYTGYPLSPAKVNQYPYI
T4 sequence (Q13164 whole entry): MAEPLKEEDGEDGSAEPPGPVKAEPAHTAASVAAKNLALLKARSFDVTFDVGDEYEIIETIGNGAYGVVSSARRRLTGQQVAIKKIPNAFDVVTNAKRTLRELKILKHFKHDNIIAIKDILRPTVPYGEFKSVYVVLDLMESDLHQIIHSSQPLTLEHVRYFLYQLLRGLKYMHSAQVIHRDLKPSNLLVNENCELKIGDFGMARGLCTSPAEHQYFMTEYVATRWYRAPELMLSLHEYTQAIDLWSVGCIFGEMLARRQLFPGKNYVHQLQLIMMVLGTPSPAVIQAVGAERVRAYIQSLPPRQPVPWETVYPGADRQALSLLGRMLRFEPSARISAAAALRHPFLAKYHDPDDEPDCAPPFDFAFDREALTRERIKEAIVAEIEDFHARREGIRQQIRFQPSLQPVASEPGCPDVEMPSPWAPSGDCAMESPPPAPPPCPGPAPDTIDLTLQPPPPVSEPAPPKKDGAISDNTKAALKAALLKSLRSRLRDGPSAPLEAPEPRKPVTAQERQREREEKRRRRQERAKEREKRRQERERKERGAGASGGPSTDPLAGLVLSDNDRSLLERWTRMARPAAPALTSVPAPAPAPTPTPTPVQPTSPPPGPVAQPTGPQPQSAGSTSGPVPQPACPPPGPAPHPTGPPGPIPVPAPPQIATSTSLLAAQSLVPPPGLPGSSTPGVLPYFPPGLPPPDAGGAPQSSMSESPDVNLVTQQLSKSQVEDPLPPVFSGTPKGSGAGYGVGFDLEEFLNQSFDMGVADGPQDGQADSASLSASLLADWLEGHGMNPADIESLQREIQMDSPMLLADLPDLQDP
T10 sequence (Q9HCP0 whole entry): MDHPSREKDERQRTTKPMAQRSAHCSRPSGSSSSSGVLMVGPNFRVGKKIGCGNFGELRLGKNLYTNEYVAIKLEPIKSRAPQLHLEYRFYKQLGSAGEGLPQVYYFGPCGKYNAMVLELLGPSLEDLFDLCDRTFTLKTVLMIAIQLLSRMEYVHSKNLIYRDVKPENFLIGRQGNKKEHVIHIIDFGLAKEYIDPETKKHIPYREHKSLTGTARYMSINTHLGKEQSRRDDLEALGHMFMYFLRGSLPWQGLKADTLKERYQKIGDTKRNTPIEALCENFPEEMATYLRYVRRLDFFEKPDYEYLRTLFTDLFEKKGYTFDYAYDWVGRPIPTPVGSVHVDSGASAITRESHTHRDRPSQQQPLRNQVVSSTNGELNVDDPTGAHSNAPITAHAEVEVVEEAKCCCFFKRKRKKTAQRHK
T2 sequence (P15056 whole entry): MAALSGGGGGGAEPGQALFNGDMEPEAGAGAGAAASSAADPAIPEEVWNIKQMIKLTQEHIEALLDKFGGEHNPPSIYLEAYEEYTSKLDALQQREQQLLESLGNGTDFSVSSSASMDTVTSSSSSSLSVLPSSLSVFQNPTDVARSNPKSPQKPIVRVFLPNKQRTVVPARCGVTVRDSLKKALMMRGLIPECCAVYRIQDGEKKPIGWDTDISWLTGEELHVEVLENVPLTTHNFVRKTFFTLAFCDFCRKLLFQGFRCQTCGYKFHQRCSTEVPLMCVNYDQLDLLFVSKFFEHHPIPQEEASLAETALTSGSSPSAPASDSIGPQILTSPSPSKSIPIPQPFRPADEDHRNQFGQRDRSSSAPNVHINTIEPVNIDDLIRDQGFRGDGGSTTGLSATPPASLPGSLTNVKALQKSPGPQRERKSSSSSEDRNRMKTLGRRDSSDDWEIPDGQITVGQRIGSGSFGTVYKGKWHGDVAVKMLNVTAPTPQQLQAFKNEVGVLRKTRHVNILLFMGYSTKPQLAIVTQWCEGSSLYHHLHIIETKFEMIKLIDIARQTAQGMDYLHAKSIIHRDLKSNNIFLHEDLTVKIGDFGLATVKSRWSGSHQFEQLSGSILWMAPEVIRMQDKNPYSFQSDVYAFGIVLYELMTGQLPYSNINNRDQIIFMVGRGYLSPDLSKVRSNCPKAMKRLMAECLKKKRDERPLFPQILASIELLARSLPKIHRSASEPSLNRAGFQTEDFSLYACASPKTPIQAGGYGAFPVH
T5 sequence (Q15569 whole entry): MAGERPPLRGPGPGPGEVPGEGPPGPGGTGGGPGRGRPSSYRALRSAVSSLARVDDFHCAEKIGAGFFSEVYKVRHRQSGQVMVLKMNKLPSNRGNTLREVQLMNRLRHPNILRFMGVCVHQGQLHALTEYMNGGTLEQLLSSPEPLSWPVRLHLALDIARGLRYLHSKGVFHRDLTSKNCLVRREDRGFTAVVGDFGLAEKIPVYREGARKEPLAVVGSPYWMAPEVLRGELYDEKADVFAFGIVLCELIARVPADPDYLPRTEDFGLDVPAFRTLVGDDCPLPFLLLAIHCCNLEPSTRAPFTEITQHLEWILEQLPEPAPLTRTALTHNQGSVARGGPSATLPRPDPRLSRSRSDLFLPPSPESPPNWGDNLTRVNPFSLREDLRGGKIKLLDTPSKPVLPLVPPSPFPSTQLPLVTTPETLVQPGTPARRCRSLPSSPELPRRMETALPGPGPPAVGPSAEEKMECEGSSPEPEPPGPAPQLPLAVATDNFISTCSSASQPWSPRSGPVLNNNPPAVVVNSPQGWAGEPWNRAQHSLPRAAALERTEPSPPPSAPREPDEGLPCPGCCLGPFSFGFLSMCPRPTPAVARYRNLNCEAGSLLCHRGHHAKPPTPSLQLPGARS
T8 sequence (Q9HBH9 whole entry): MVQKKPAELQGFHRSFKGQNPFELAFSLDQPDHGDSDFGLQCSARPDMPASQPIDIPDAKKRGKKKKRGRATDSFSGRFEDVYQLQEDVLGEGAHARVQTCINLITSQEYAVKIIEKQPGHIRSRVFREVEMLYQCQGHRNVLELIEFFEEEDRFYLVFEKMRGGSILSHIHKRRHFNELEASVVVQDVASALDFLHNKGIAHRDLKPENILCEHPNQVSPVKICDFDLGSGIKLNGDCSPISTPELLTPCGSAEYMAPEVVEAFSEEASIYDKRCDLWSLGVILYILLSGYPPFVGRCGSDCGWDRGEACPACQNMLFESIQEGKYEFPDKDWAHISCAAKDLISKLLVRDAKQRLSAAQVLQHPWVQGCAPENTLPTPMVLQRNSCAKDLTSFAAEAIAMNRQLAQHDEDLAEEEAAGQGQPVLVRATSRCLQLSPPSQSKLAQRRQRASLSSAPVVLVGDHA

Structure (SMILES) | remaining binding at 1 µM (panel of 468 kinases [1]) | remaining binding at 1 µM (panel of 468 kinases [2]) | remaining binding at 1 µM (panel of 468 kinases [3]) | remaining binding at 1 µM (panel of 468 kinases [4]) | remaining binding at 1 µM (panel of 468 kinases [5]) | remaining binding at 1 µM (panel of 468 kinases [6]) | remaining binding at 1 µM (panel of 468 kinases [7]) | remaining binding at 1 µM (panel of 468 kinases [8]) | remaining binding at 1 µM (panel of 468 kinases [9]) | remaining binding at 1 µM (panel of 468 kinases [10]) | remaining binding at 1 µM (panel of 468 kinases [11])
CNc1nc(Nc2ccc(S(=O)(=O)N3CCC(N4CCOCC4)CC3)cc2OC)nc2[nH]cc(Cl)c12 [Compound 12, 5-chloro-N2-(2-methoxy-4-((4-morpholinopiperidin-1-yl)sulfonyl)phenyl)-N4-methyl-7H-pyrrolo[2,3-d]pyrimidine-2,4-diamine] | 100% | 93% | 100% | 53% | 100% | 48% | 100% | 57% | 95% | 100% | 80%
CNc1nc(Nc2ccc(C(=O)N3CCC(N4CCOCC4)CC3)c3c2OCO3)nc2[nH]cc(Cl)c12 [Compound 75, (7-((5-chloro-4-(methylamino)-7H-pyrrolo[2,3-d]pyrimidin-2-yl)amino)benzo[d][1,3]dioxol-4-yl)(4-morpholinopiperidin-1-yl)methanone] | 70% | 100% | 100% | 51% | 100% | 23% | 66% | 10% | 37% | 28% | 51%
CNc1nc(Nc2ccc(P3(=O)CCN(C4CCOCC4)CC3)cc2OC)nc2[nH]cc(Cl)c12 [Compound 77, 4-(4-((5-chloro-4-(methylamino)-7H-pyrrolo[2,3-d]pyrimidin-2-yl)amino)-3-methoxyphenyl)-1-(tetrahydro-2H-pyran-4-yl)-1,4-azaphosphinane 4-oxide] | 100% | 97% | 100% | 78% | 100% | 32% | 95% | 31% | 87% | 100% | 76%
